Test results from US20090275574A1, “NOVEL COMPOUNDS-300” (ASTRAZENECA AB, priority 2008, published 2009).

How the values were obtained:
[1] = target: T1, hM1 (human Muscarinic receptor subtype 1) (Homo sapiens, UniProt P11229); experiment: Human M1 calcium mobilization FLIPR assay; assay type: cell-based; conditions: hM1 expressed in CHO cells, intracellular Ca2+ release (FLIPR)
T1 construct: expressed in transfected cells; host or cells: CHO cells (ATCC)
T1 sequence (P11229 1-460): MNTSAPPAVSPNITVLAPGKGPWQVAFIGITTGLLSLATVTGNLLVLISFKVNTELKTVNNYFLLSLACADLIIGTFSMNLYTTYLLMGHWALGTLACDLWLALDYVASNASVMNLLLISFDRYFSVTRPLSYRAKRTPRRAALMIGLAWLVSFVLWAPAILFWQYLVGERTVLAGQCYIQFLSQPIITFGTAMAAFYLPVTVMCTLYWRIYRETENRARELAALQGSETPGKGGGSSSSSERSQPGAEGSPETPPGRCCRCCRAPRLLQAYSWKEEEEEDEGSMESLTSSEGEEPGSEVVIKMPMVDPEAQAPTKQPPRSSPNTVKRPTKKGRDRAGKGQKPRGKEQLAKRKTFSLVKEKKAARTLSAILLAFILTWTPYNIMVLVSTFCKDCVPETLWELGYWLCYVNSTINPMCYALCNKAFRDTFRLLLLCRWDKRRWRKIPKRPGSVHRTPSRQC
Description: (§1) Human M1, rat M1, Human M3 and Human M5 Calcium Mobilization FLIPR™ Assay The compound activity in the present invention (EC50 or IC50) is measured using a 384 plate-based imaging assay that monitors drug induced intracellular Ca^2+ release in whole cells. Activation of hM1 (human Muscarinic receptor subtype 1, gene bank access NM_000738), rM1 (rat Muscarinic receptor subtype 1, gene bank access NM_080773), hM3 (human Muscarinic receptor subtype 3, gene bank access NM_000740NM_000740) and hM5 (human Muscarinic receptor subtype 5, gene bank access NM_0121258), receptors expressed in CHO cells (Chinese hamster ovary cells, ATCC) is quantified in a Molecular Devices FLIPR IITM instrument as an increase in fluorescent signal. Inhibition of hM3 and hM5 by compounds is determined by the decrease in fluorescent signal in response to 2 nM acetylcholine activation. […] Prior to experiment, the cell culture medium is removed from the plates by inversion. […] Plates are incubated at 37° C. for 60 minutes prior to start the experiment. The incubation is terminated by washing the cells four times in assay buffer, leaving a residual 25 μl buffer per well. Cell plates are then transferred to the FLIPR, ready for compound additions. The day of experiment, acetylcholine and compounds are diluted in assay buffer in three-fold concentration range (10 points serial dilution) for addition by FLIPR instrument. For all calcium assays, a baseline reading is taken for 10 seconds followed by the addition of 12.5 μl of compounds, resulting in a total well volume of 37.5 μl. Data is collected every second for 60 pictures and then every 6 seconds for 20 pictures prior to the addition of agonist. For hM3 and hM5, before agonist addition, a second baseline reading is taken for 10 seconds followed by the addition of 12.5 μl of agonist or buffer, producing a final volume of 50 μl. After agonist stimulation, the FLIPR continues to collect data every second for 60 pictures and then every 6 seconds for 20 pictures. The fluorescence emission is read using filter 1 (emission 510-570 nm) by the FLIPR on board CCD camera. Calcium mobilization output data are calculated as the maximal relative fluorescence unit (RFU) minus the minimal value for both compound and agonist reading frame (except for hM1 and rM1 using only the maximal RFU). Data are analyzed using sigmoidal fits of a non-linear curve-fitting program (XLfit version 4.2.2 Excel add-in version 4.2.2 build 18 math 1Q version 2.1.2 build 18). All pEC50 and pIC50 values are reported as arithmetic means±standard error of mean of ‘n’ independent experiments.

cloned human M2 receptor = target: T2, cloned human M2 receptor (Homo sapiens, UniProt P08172); experiment: hM2 receptor GTPγS binding; assay type: biochemical; conditions: CHO membranes expressing hM2, [35S]GTPγS binding
T2 construct: purchased Perkin-Elmer RBHM2M; host or cells: Chinese hamster ovary cells (CHO), membranes
T2 sequence (P08172 1-466): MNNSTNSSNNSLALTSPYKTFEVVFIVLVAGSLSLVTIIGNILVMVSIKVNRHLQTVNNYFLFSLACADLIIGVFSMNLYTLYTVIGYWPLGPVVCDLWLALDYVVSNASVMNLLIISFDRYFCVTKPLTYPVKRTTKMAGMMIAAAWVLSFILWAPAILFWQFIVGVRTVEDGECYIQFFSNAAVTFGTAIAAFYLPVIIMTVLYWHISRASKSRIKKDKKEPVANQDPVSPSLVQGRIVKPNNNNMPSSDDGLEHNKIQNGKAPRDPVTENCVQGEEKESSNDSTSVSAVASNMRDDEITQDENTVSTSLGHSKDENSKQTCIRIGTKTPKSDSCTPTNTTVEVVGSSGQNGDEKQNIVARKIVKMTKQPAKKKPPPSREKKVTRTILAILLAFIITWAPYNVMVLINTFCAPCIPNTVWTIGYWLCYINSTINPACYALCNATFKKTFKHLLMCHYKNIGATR
Description: hM2 Receptor GTPγS Binding Membranes produced from Chinese hamster ovary cells (CHO) expressing the cloned human M2 receptor (human Muscarinic receptor subtype 2, gene bank access NM_000739), are obtained from Perkin-Elmer (RBHM2M). The membranes are thawed at 37° C., passed 3 times through a 23-gauge blunt-end needle, diluted in the GTPγS binding buffer (50 mM Hepes, 20 mM NaOH, 100 mM NaCl, 1 mM EDTA, 5 mM MgCl2, pH 7.4, 100 μM DTT). The EC50, IC50 and Emax of the compounds of the invention are evaluated from 10-point dose-response curves (three fold concentration range) done in 60 μl in 384-well non-specific binding surface plate (Corning). Ten microliters from the dose-response curves plate (5× concentration) are transferred to another 384 well plate containing 25 μl of the following: 5 μg of hM2 membranes, 500 μg of Flashblue beads (Perkin-Elmer) and GDP 25 μM. An additional 15 μl containing 3.3× (60,000 dpm) of GTPγ^35S (0.4 nM final) are added to the wells resulting in a total well volume of 50 μl. Basal and maximal stimulated [^35S]GTPγS binding are determined in absence and presence of 30 μM final of acetylcholine agonist. The membranes/beads mix are pre-incubated for 15 minutes at room temperature with 25 μM GDP prior to distribution in plates (12.5 μM final). The reversal of acetylcholine-induced stimulation (2 μM final) of [^35S]GTPγS binding is used to assay the antagonist properties (IC50) of the compounds. The plates are incubated for 60 minutes at room temperature then centrifuged at 400 rpm for 5 minutes. The radioactivity (cpm) is counted in a Trilux (Perkin-Elmer). Values of EC50, IC50 and Emax are obtained using sigmoidal fits of a non-linear curve-fitting program (XLfit version 4.2.2 Excel add-in version 4.2.2 build 18 math 1Q version 2.1.2 build 18) of percent stimulated [^35S]GTPγS binding vs. log(molar ligand). All pEC50 and pIC50 values are reported as arithmetic means±standard error of mean of ‘n’ independent experiments.

[2] = target: T3, hM3 (human Muscarinic receptor subtype 3) (Homo sapiens, UniProt P20309); experiment: Human M3 calcium mobilization FLIPR assay; assay type: cell-based; conditions: hM3 expressed in CHO cells, intracellular Ca2+ release (FLIPR)
T3 construct: expressed in transfected cells; host or cells: CHO cells (ATCC)
Description: as §1

T3 sequence (P20309 whole entry): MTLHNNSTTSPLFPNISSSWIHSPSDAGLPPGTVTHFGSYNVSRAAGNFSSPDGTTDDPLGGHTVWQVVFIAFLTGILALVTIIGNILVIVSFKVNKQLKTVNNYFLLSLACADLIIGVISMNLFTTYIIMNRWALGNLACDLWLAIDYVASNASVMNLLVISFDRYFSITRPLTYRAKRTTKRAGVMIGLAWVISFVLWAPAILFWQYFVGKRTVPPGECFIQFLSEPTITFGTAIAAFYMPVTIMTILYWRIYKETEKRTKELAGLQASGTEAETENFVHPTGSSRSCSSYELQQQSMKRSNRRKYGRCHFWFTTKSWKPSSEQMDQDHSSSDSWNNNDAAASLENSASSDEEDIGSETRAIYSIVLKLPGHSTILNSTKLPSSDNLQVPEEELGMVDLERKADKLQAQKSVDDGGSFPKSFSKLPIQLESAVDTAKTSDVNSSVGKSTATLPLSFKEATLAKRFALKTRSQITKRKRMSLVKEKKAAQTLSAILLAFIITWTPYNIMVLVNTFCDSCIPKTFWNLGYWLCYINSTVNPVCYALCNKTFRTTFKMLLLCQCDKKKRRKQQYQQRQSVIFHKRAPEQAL

Compound | EC50 [1] [nM] | EC50 (cloned human M2 receptor) [nM] | EC50 [2] [nM]
O=C1CO[C@@H]2CCC[C@@H]2N1C1CCN([C@H]2CC[C@@H](COCC3CC3)CC2)CC1 [Example 47, (4aS,7aR)-4-(1-((1s,4R)-4-((cyclopropylmethoxy)methyl)cyclohexyl)piperidin-4-yl)hexahydrocyclopenta[b][1,4]oxazin-3(2H)-one] | 93 |  | 
CCCOC1CCC(N2CCC(N3C(=O)NC[C@H]4CCCC[C@@H]43)CC2)CC1 (single isomer, unassigned) [Example 05] | 160 |  | 
CCOC[C@H]1CC[C@@H](N2CCC(N3C(=O)COC4CCCCC43)CC2)CC1 (single isomer, unassigned) [Example 33] | 110 |  | 
C#CCOC1CCC(N2CCC(N3C(=O)NC[C@H]4CCCC[C@@H]43)CC2)CC1 (mixture of isomers) [Example 09, (4aR,8aS)-1-(1-(4-(prop-2-ynyloxy)cyclohexyl)piperidin-4-yl)octahydroquinazolin-2(1 H)-one] | 31 |  | 
O=C1NC[C@H]2CCCC[C@@H]2N1C1CCN(C2CCCC2)CC1 [Example 10, (4aR,8aS)-1-(1-cyclopentylpiperidin-4-yl)octahydroquinazolin-2(1H)-one] | 68 |  | 
CCOCC1(C)CCC(N2CCC(N3C(=O)CO[C@H]4CCCC[C@@H]43)CC2)CC1 (single isomer, unassigned) [Example 30] | 200 |  | 
O=C1CO[C@H]2CCCC[C@@H]2N1C1CCN(C2CCC(OCC3CC3)CC2)CC1 (single isomer, unassigned) [Example 20] | 170 |  | 
O=C1CO[C@@H]2CCCC[C@H]2N1C1CCN([C@H]2CC[C@@H](COCC3CC3)CC2)CC1 [Example 32, (4aR,8aR)-4-(1-((1s,4S)-4-((cyclopropylmethoxy)methyl)cyclohexyl)piperidin-4-yl)hexahydro-2H-benzo[b][1,4]oxazin-3(4H)-one] | 190 |  | 
O=C1CO[C@H]2CCCC[C@@H]2N1C1CCN(C2CC(COCC3CC3)C2)CC1 (single isomer, unassigned) [Example 41] | 52 | > 15000 | 
O=C1CO[C@H]2CCCC[C@@H]2N1C1CCN(C2CCC(OCC3CC3)CC2)CC1 (single isomer, unassigned) [Example 21] | 110 |  | 
O=C1NC[C@H]2CCCC[C@@H]2N1C1CCN(C2CCC(COCC(F)F)CC2)CC1 (single isomer, unassigned) [Example 50] | 0.76 | 340 | 
O=C1COC2CCCC2N1C1CCN([C@H]2CC[C@@H](COCC3CC3)CC2)CC1 (single isomer, unassigned) [Example 49] | 110 |  | 
O=C1NC[C@H]2CCCC[C@@H]2N1C1CCN(C2CCCCC2)CC1 [Example 12, (4aR,8aS)-1-(1-cyclohexylpiperidin-4-yl)octahydroquinazolin-2(1H)-one] | 60 |  | > 40000
CC(C)OCC1CCC(N2CCC(N3C(=O)CO[C@@H]4CCC(F)(F)C[C@H]43)CC2)CC1 (single isomer, unassigned) [Example 35] | 180 |  | 
CC(C)OCC1CCC(N2CCC(N3C(=O)CO[C@@H]4CCC(F)(F)C[C@H]43)CC2)CC1 (single isomer, unassigned) [Example 36] | 310 |  | 
CCOCC1(C)CCC(N2CCC(N3C(=O)CO[C@H]4CCCC[C@@H]43)CC2)CC1 (single isomer, unassigned) [Example 31] | 190 |  | 
CCOC[C@H]1CC[C@@H](N2CCC(N3C(=O)CO[C@@H]4CCCC[C@H]43)CC2)C1 [Example 46, (4aR,8aR)-4-(1-((1R,3S)-3-(ethoxymethyl)cyclopentyl)piperidin-4-yl)hexahydro-2H-benzo[b][1,4]oxazin-3(4H)-one] | 290 |  | 
CCC1CCC(N2CCC(N3C(=O)NC[C@H]4CCCC[C@@H]43)CC2)CC1 (mixture of isomers) [Example 11, (4aR,8aS)-1-(1-(4-ethylcyclohexyl)piperidin-4-yl)octahydroquinazolin-2(1H)-one] | 43 |  | > 40000
CCCOC1CCC(N2CCC(N3C(=O)CO[C@H]4CCCC[C@@H]43)CC2)CC1 (single isomer, unassigned) [Example 16] | 190 |  | 
CCOC[C@H]1CC[C@@H](N2CCC(N3C(=O)COC4CCCCC43)CC2)CC1 (single isomer, unassigned) [Example 34] | 80 |  | 
CC(C)OC1CCC(N2CCC(N3C(=O)NC[C@H]4CCCC[C@@H]43)CC2)CC1 (single isomer, unassigned) [Example 07] | 660 |  | 
